In one series the test system is human liver cells S9. The series can be described thus: Metabolism in human liver cells S9 to form the active component compound III. It is filed as in vitro ADME. Conditions: conversion to compound III, human liver S9, 1 mM NADPH, 37° C. The source says: Then the mixture was quenched with concentrated perchloric acid. After the precipitated proteins was removed by centrifuge, the supernatant was adjusted with concentrated potassium phosphate until pH was 3, and centrifuged again. The supernatant was directly injected into HPLC and analyzed.

Series [1] can be described thus: Beagle test of sustained release capsules (oral) versus intravenous administration. Format: in vivo. Particulars: beagles, orally administrated sustained release capsule. How it is done:
The blood samples were collected separately at 0.25, 0.5, 1, 2, 4, 6, 8, 12, 16 and 24 hours after drug administration.

On to `COc1ccc(C(=O)Oc2ccc(C(CN(C)C)C3(O)CCCCC3)cc2)cc1` (centres unmarked) [Compound 3 of Example 1, 4-[2-dimethylamino-1-(1-hydroxycyclohexyl)-ethyl]phenyl 4-methoxybenzoate], for which the “Metabolic rate (%) of compounds in liver cells within 2 hours” value (shortened to “Metabolic rate (%) of compounds”) in the series with human liver cells S9 is 92%.
Consider `CN(C)CC(c1ccc(OC(=O)c2ccccc2)cc1)C1(O)CCCCC1.Cl` (centres unmarked) [4-[2-dimethylamino-1-(1-hydroxycyclohexyl)-ethyl]phenyl benzoate hydrochloride], for which the “conversion into compound III in vivo” value in series [1] was “quickly converted”.
`CN(C)CC(c1ccc(OC(=O)c2ccccc2)cc1)C1(O)CCCCC1` (centres unmarked) [Compound 2 of Example 1, 4-[2-dimethylamino-1-(1-hydroxycyclohexyl)-ethyl]phenyl Benzoate]: the “Metabolic rate (%) of compounds” value in the series on human liver cells S9 is given as 96%.
With `COc1ccc(C(=O)Oc2ccc(C(CN(C)C)C3(O)CCCCC3)cc2)cc1.O=C(O)CCC(=O)O` (centres unmarked) [4-[2-dimethylamino-1-(1-hydroxycyclohexyl)-ethyl]phenyl 4-methoxybenzoate succinate], the “conversion into compound III in vivo” value in series [1] is “quickly converted”.
In the case of `CN(C)CC(c1ccc(OC(=O)c2ccc(F)cc2)cc1)C1(O)CCCCC1` (centres unmarked) [Compound 4 of Example 1, 4-[2-dimethylamino-1-(1-hydroxycyclohexyl)-ethyl]phenyl 4-fluorobenzoate], the “Metabolic rate (%) of compounds” value with human liver cells S9 was 88%.

(Values after patent US8178724B2, “Compounds for inhibition of 5-hydroxytryptamine and norepinephrine reuptake or for treatment of depression disorders, their preparation processes and uses thereof” (Shandong Luye Pharmaceutical Co., Ltd., priority 2005, dated 2012).)
